Measurements reported in ChEMBL document CHEMBL2396537, “Orally active opioid compounds from a non-poppy source” (J Med Chem, 2013).
Calls of active or inactive are those of the source. No cut-off for these calls is given here.

Key:
Cavia porcellus [1] = organism: Cavia porcellus; experiment: Agonist activity at opioid receptor in guinea pig ileum assessed as inhibition of electrically-induced twitch at 100 pM to 30 uM relative to morphine; type: tissue-based
Mu-type opioid receptor [2] = target: Mu-type opioid receptor (Homo sapiens, UniProt P35372); experiment: Binding affinity to mu opioid receptor (unknown origin)
[3] = target: Kappa-type opioid receptor (Homo sapiens, UniProt P41145); experiment: Binding affinity to kappa opioid receptor (unknown origin)
[4] = Displacement of [3H]DPDPE from guinea pig brain delta opoid receptor after 4 hrs by liquid scintillation counting analysis; set-up: species or system Cavia porcellus
Mu-type opioid receptor [5] = target: T1, Mu-type opioid receptor (Cavia porcellus, UniProt P97266); experiment: Displacement of [3H]DAMGO from guinea pig brain mu opoid receptor after 3 hrs by liquid scintillation counting analysis
Mus musculus [6] = experiment: Antinociceptive activity in ddY mouse assessed as tolerance level at 10 mg/kg, sc bid measured on day 5 by tail-flick test; type: functional
Cavia porcellus [7] = organism: Cavia porcellus; experiment: Selectivity ratio of Ki for mu opioid receptor in Dunkin-Hartley guinea pig brain over Ki for delta opioid receptor in Dunkin-Hartley guinea pig brain
[8] = Displacement of [3H]DPDPE from delta opoid receptor in Dunkin-Hartley guinea pig brain after 2 hrs by liquid scintillation spectrometry; set-up: species or system Cavia porcellus
[9] = target: T2, Kappa-type opioid receptor (Cavia porcellus, UniProt P41144); experiment: Displacement of [3H]U-69,593 from guinea pig brain kappa opoid receptor after 1 hr by liquid scintillation counting analysis
Mu-type opioid receptor [10] = target: T1, Mu-type opioid receptor; experiment: Displacement of [3H]DAMGO from mu opoid receptor in Dunkin-Hartley guinea pig brain after 1.5 hrs by liquid scintillation spectrometry
[11] = target: T2, Kappa-type opioid receptor; experiment: Displacement of [3H]U-69593 from kappa opoid receptor in Dunkin-Hartley guinea pig brain after 1 hr by liquid scintillation spectrometry
Rattus norvegicus = experiment: Inhibition of gastrointestinal transit of charcoal meal in rat at 55.2 mg/kg, po; type: organism-based; set-up: dose 55.2 mg/kg, route oral; settings: in vivo
Mus musculus [12] = experiment: Antinociceptive activity in mouse at 92 mg/kg, po by hot plate test; type: functional
[13] = Binding affinity to delta opioid receptor (unknown origin)

Chain of Kappa-type opioid receptor (Homo sapiens, UniProt P41145) (P41145 whole entry): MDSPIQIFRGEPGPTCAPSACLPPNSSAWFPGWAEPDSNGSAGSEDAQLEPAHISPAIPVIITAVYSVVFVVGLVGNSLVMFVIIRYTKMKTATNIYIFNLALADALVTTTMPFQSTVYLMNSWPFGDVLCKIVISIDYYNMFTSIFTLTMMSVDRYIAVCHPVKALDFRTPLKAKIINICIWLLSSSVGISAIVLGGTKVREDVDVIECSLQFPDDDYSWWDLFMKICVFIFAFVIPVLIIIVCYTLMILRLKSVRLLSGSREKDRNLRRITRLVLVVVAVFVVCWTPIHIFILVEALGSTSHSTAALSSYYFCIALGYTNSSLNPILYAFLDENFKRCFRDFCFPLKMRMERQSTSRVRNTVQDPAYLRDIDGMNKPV
T2 sequence (P41144 whole entry): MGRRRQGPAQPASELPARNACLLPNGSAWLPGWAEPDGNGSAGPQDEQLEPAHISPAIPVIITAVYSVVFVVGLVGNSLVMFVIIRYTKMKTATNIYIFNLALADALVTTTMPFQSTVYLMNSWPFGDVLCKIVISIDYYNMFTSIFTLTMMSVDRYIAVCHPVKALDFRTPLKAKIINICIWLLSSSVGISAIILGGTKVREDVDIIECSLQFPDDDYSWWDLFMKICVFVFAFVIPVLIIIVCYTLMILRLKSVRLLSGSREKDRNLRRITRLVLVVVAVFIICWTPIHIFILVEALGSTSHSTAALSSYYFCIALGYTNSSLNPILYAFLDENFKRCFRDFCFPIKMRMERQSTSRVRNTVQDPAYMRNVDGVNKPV
Chain of Mu-type opioid receptor (Homo sapiens, UniProt P35372) (P35372 whole entry): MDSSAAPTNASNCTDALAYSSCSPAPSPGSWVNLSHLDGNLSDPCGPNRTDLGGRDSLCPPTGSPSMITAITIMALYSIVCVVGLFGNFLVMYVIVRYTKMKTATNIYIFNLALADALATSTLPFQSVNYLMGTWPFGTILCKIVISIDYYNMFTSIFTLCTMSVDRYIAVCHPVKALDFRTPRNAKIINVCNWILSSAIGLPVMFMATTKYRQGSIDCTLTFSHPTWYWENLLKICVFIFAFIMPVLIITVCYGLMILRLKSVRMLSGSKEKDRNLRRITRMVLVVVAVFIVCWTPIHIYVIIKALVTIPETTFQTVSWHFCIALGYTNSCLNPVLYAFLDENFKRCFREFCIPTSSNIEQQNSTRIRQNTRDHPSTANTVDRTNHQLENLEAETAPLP
T1 sequence (P97266 whole entry): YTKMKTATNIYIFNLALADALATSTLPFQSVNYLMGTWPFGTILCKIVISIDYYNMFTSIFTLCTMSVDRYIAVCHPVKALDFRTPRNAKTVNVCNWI

In the case of CC[C@@H]1CN2CC[C@@]3(OC(C)=O)C(=Nc4cccc(OC)c43)[C@@H]2C[C@@H]1/C(=C\OC)C(=O)OC, the Efficacy (Cavia porcellus [1]) is reported as 15% and the inhibition (Cavia porcellus [1]) is reported as 21%.

CC[C@@H]1CN2CC[C@@]34OCCO[C@@]3(Nc3ccc(F)c(OC)c34)[C@@H]2C[C@@H]1/C(=C\OC)C(=O)OC gave a Ki (Mu-type opioid receptor [2]) of 7 nM and a Ki [3] of 7 nM.

CC[C@@H]1CN2CC[C@@]3(OC)C(=Nc4cccc(OC)c43)[C@@H]2C[C@@H]1/C(=C\OC)C(=O)OC showed an Efficacy (Cavia porcellus [1]) of 70% and an inhibition (Cavia porcellus [1]) of 19%.

Work on CC[C@@H]1CN2CC[C@@]3(O)C(=Nc4cccc(OC)c43)[C@@H]2C[C@@H]1/C(=C\OC)C(=O)OC yielded a Ki [4] of 145 nM, an Efficacy (Cavia porcellus [1]) of 99% and a Ki (Mu-type opioid receptor [5]) of 9.8 nM. The Activity (Mus musculus [6]) was “Active”, the Ratio Ki (Cavia porcellus [7]) was greater than 10 and the Ki [8] was 155 nM. It also gave a Ki [9] of 195 nM and a Ki (Mu-type opioid receptor [10]) of 13 nM.

In the case of CC[C@@H]1CN2CCc3c([nH]c4cccc(OC)c34)[C@@H]2C[C@@H]1/C(=C\OC)C(=O)OC, the Ki [11] is reported as greater than 1000 nM, the “inhibition (INH)” value (Rattus norvegicus) is reported as 18% and the Efficacy (Cavia porcellus [1]) is reported as 95%. The inhibition (Cavia porcellus [1]) was 26%, the Ratio Ki (Cavia porcellus [7]) was 10 and the Ki [8] was 60 nM. It also gave an Activity (Mus musculus [12]) of 100%.

CC[C@@H]1CN2CC[C@]3(Nc4cccc(OC)c4C3=O)[C@@H]2C[C@@H]1/C(=C\OC)C(=O)OC showed a Ki [13] of 3 nM, a Ki (Mu-type opioid receptor [2]) of 0.01 nM and a Ki [3] of 79 nM.

For CN1CC[C@]23c4c5ccc(O)c4O[C@H]2[C@@H](O)C=C[C@H]3[C@H]1C5 [MORPHINE], the “inhibition (INH)” value (Rattus norvegicus) was 70% and the Activity (Mus musculus [6]; route subcutaneous) was 100%.

With COc1ccc2c3c1O[C@H]1[C@@H](O)C=C[C@H]4[C@@H](C2)N(C)CC[C@@]341 [CODEINE] the “inhibition (INH)” value (Rattus norvegicus) was 70%.

Work on CC[C@@H]1CN2CCc3c([nH]c4cccc(O)c34)[C@@H]2C[C@@H]1/C(=C\OC)C(=O)OC yielded an Efficacy (Cavia porcellus [1]) of 57% and an inhibition (Cavia porcellus [1]) of 41%.

For CC[C@@H]1CN2CCc3c([nH]c4cccc(OC(C)=O)c34)[C@@H]2C[C@@H]1/C(=C\OC)C(=O)OC, the Efficacy (Cavia porcellus [1]) was 38% and the inhibition (Cavia porcellus [1]) was 2%.

CCO[C@]12CCN3C[C@@H](CC)[C@@H](/C(=C\OC)C(=O)OC)C[C@H]3C1=Nc1cccc(OC)c12 gave an Efficacy (Cavia porcellus [1]) of 26% and an inhibition (Cavia porcellus [1]) of 1%.
